# pIC50: −log10 of the molar value.
# What was measured:
# PC3 (prostate) = assay: In vitro cytotoxic activity (MTT) assay, PC3; format: cell-based; conditions: Homo sapiens, Prostate cell, cells exposed for 96 hours, read-out: Cytotoxicity activity IC50 (50% inhibition of cell proliferation)
# Protocol: (§1) Compounds 1-16 were screened for their in vitro cytotoxic activity utilizing a 3-(4,5-dimethyl-thiazol-2-yl)-2,5-diphenyltetrazolium bromide (MTT) assay against selected cancer human cell lines consisting of PC3 (prostate), HCT116 (colon), A375 (melanoma), H1299 (lung), MIAPaCa-2 (pancreas), HL60 (leukemia), MCF7 (breast), MDA-MB-231 (breast) (T. Mosmann, J. Immunol. Meth., 1983, 65, 55-63). The cells were cultured at 37° C. in RMPI1640 medium supplemented with 10% fetal bovine serum, 50 IU/mL penicillin, and […] streptomycin in a 5% CO2 incubator. All cells were sub-cultured 3 times/week by trypsinization. Viable cells were seeded and allowed to adhere for 12 hours before a test drug was added in 96-well plates at an initial density of 1.0×10^5 cells/mL. Tumor cell lines were separately exposed to various concentrations of the tested compounds followed by incubation at a temperature of 37° C. during 96 hours inside a medium of fresh RMPI 1640. Cells were subsequently incubated at 37° C. using MTT at 0.5 mg/mL during 4 hours. After removal of supernatant, formazan crystals were dissolved in isopropanol and the optical density was measured at 570 nm. CX-4945 was used as a positive control.
# HCT116 (colon) = assay: In vitro cytotoxic activity (MTT) assay, HCT116; format: cell-based; conditions: Homo sapiens, HCT-116, cells exposed for 96 hours, read-out: Cytotoxicity activity IC50 (50% inhibition of cell proliferation)
# Protocol: as §1
# A375 (melanoma) = assay: In vitro cytotoxic activity (MTT) assay, A375; format: cell-based; conditions: Homo sapiens, A-375, cells exposed for 96 hours, read-out: Cytotoxicity activity IC50 (50% inhibition of cell proliferation)
# Protocol: as §1
# H1299 (lung) = assay: In vitro cytotoxic activity (MTT) assay, H1299; format: cell-based; conditions: Homo sapiens, NCI-H1299, cells exposed for 96 hours, read-out: Cytotoxicity activity IC50 (50% inhibition of cell proliferation)
# Protocol: as §1
# MIAPaCa-2 (pancreas) = assay: In vitro cytotoxic activity (MTT) assay, MIAPaCa-2; format: cell-based; conditions: Homo sapiens, MIA PaCa-2, cells exposed for 96 hours, read-out: Cytotoxicity activity IC50 (50% inhibition of cell proliferation)
# Protocol: as §1
# HL60 (leukemia) = assay: In vitro cytotoxic activity (MTT) assay, HL60; format: cell-based; conditions: Homo sapiens, HL-60, cells exposed for 96 hours, read-out: Cytotoxicity activity IC50 (50% inhibition of cell proliferation)
# Protocol: as §1
# MCF7 (breast) = assay: In vitro cytotoxic activity (MTT) assay, MCF7; format: cell-based; conditions: Homo sapiens, cells exposed for 96 hours, read-out: Cytotoxicity activity IC50 (50% inhibition of cell proliferation)
# Protocol: as §1
# MDA-MB-231 (breast) = assay: In vitro cytotoxic activity (MTT) assay, MDA-MB-231; format: cell-based; conditions: Homo sapiens, cells exposed for 96 hours, read-out: Cytotoxicity activity IC50 (50% inhibition of cell proliferation)
# Protocol: as §1
# recombinant human CK2 = target: T1, recombinant human CK2 (Homo sapiens, UniProt P68400); assay: CK2 Kinase Assay (33P-ATP, filter plate); format: biochemical; conditions: final ATP concentration 15 μM, 10 min at 30° C.; read-out: protein kinase CK2 activity IC50
# T1 construct: purchased Millipore
# Protocol: CK2 Kinase Assay was conducted using the protocol as described in Pierre F. et al; J. Med. Chem. 2011, 54, 635-654. The tested compounds in aqueous solution were added at a volume of 10 μL to a reaction mixture comprising 10 μL of assay dilution buffer (ADB; 20 mM MOPS, pH 7.2, 25 mM β-glycerol phosphate, 5 mM EGTA, 1 mM sodium orthovanadate, and 1 mM dithiothreitol), 10 μL of substrate peptide (RRRDDDSDDD (SEQ 1), dissolved in ADB at a concentration of 1 mM), 10 μL of recombinant human CK2 (RROP-holoenzyme, 25 ng dissolved in ADB; Millipore). Reactions were initiated by the addition of 10 μL of ATP solution (90% 75 mMMgCl2, 75 μM ATP (final ATP concentration: 15 μM) dissolved in ADB; 10% [γ-33P] ATP (stock 1mCi/100 μL; 3000 Ci/mmol (Perkin-Elmer) and maintained for 10 min at 30° C. The reactions were quenched with 100 μL of 0.75% phosphoric acid and then transferred to and filtered through a phosphor cellulose filter plate (Millipore). After washing each well five times with 0.75% phosphoric acid, the plate was dried under vacuum for 5 min and, following the addition of 15 μL of scintillation fluid to each well, the residual radioactivity was measured using a Wallac luminescence counter. The IC50 values were derived from eight concentrations of test inhibitors.
# T1 sequence (P68400 whole entry): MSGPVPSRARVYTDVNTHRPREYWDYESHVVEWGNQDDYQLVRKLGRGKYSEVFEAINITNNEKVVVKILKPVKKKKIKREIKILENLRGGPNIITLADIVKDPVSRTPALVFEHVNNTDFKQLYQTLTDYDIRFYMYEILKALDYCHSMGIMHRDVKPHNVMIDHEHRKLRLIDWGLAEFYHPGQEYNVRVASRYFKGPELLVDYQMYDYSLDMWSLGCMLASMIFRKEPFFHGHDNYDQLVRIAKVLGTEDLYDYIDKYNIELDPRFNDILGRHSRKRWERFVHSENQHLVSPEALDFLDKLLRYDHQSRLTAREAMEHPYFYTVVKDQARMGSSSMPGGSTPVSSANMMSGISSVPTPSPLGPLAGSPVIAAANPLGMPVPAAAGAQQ
# T1 sequence (P67870 whole entry partner): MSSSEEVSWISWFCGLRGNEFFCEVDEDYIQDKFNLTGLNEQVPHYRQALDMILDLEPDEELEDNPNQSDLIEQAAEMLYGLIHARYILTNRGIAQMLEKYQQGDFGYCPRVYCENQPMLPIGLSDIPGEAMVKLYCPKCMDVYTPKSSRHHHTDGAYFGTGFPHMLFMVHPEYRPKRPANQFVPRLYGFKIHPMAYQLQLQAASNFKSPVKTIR
structure (smiles),measurement,setting,value
"O=C(O)c1nnc2c3cnccc3nc(Nc3cccc(Cl)c3)n12 [Compound 1, 5-((3-chlorophenyl)amino)pyrido[3,4-e][1,2,4]triazolo[4,3-c]pyrimidine-3-carboxylic acid]",pIC50,PC3 (prostate),5.82
same,pIC50,HCT116 (colon),5.55
same,pIC50,A375 (melanoma),5.27
same,pIC50,H1299 (lung),5.51
same,pIC50,MIAPaCa-2 (pancreas),5.89
same,pIC50,HL60 (leukemia),5.24
same,pIC50,MCF7 (breast),5.31
same,pIC50,MDA-MB-231 (breast),5.35
same,pIC50,recombinant human CK2,7.49
